According to ChEMBL document CHEMBL1131910, “Exploratory solid-phase synthesis of factor Xa inhibitors: discovery and application of p3-heterocyclic amides as novel types of non-basic arginine surrogates” (Bioorg Med Chem Lett, 1999):

Legend:
Plasminogen [1] = biological target: T1, Plasminogen (Homo sapiens, UniProt P00747); assay: In vitro inhibition of human thrombolytic protease Plasmin.
Serine protease 1 [2] = biological target: T2, Serine protease 1 (Homo sapiens, UniProt P07477); assay: In vitro inhibition of human trypsin.
T2 sequence (P07477 whole entry): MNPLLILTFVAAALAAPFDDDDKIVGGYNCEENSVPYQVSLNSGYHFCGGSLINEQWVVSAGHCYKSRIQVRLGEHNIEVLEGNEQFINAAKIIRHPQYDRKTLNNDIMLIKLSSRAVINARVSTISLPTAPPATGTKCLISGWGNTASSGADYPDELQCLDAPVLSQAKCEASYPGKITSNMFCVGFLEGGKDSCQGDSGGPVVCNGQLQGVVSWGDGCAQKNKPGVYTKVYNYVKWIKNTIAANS

Prothrombin [3] = biological target: T3, Prothrombin (Homo sapiens, UniProt P00734); assay: In vitro inhibition of human Thrombin (FIIa).
Coagulation factor X [4] = biological target: T4, Coagulation factor X (Homo sapiens, UniProt P00742); assay: In vitro inhibition of human Factor Xa.
T4 sequence (P00742 41-179 limits assumed): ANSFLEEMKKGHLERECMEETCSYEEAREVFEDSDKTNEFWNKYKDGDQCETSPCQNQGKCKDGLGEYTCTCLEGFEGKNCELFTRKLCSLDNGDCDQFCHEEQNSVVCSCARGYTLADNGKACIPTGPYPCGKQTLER
T4 sequence (P00742 235-488 limits assumed): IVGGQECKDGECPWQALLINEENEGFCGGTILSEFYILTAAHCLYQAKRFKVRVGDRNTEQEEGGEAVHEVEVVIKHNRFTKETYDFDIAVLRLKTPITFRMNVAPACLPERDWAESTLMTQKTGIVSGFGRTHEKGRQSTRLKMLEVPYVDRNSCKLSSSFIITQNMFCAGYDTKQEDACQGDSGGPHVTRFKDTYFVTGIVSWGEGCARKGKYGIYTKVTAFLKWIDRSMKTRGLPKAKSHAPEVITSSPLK

Serine protease 1 [5] = biological target: T2, Serine protease 1; assay: In vitro inhibition against human trypsin was evaluated; Inactive
Coagulation factor X [6] = biological target: T4, Coagulation factor X; assay: In vitro inhibition against human Factor Xa (FXa) was evaluated; Inactive
Prothrombin [7] = biological target: T3, Prothrombin; assay: In vitro inhibition against human Thrombin ( FIIa) was evaluated; Inactive
Plasminogen [8] = biological target: T1, Plasminogen; assay: In vitro inhibition against human thrombolytic protease Plasmin was evaluated; Inactive

T1 sequence (P00747 97-580 limits assumed): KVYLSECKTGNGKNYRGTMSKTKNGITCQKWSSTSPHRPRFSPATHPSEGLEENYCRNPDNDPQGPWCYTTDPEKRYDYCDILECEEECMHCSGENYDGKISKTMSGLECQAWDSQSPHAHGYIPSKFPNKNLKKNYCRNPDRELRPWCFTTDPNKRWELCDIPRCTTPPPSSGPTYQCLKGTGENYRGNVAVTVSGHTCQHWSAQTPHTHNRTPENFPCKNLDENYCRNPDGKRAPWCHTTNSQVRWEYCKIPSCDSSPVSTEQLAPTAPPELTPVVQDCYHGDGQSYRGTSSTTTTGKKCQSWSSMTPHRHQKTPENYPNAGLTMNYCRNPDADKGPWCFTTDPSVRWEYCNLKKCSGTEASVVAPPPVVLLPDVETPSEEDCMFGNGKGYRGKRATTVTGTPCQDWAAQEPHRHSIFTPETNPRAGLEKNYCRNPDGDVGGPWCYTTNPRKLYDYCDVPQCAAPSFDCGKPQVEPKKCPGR
T1 sequence (P00747 581-810 limits assumed): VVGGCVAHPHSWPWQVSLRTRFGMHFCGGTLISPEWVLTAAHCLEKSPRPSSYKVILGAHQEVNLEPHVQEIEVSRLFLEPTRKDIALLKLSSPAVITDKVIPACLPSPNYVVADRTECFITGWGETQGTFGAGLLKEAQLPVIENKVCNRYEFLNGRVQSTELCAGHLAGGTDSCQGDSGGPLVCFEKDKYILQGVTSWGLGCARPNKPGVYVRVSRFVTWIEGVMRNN

SMILES	IC50 (Plasminogen [1])	IC50 (Serine protease 1 [2])	IC50 (Prothrombin [3])	IC50 (Coagulation factor X [4])	IC50 (Serine protease 1 [5])	IC50 (Coagulation factor X [6])	IC50 (Prothrombin [7])	IC50 (Plasminogen [8])
N=C(N)N1CCC[C@H](NC(=O)CNC(=O)[C@@H](CCNC(=O)c2cn[nH]c2)NC(=O)OCc2ccccc2)C1O (some centres undefined)	3270 nM	74.5 nM	> 2500 nM	346 nM	–	–	–	–
N=C(N)N1CCC[C@H](NC(=O)CNC(=O)[C@@H](CNC(=O)c2cnccn2)NS(=O)(=O)Cc2ccccc2)C1O (some centres undefined)	1480 nM	152 nM	> 2500 nM	311 nM	–	–	–	–
N=C(N)N1CCC[C@H](NC(=O)CNC(=O)[C@@H](CCNC(=O)c2ccccn2)NS(=O)(=O)Cc2ccccc2)C1O (some centres undefined)	1140 nM	223 nM	> 2500 nM	20.5 nM	–	–	–	–
N=C(N)N1CCC[C@H](NC(=O)CNC(=O)[C@@H](CCCNC(=O)c2cnccn2)NS(=O)(=O)Cc2ccccc2)C1O (some centres undefined)	673 nM	324 nM	2500 nM	15 nM	–	–	–	–
N=C(N)N1CCC[C@H](NC(=O)CNC(=O)[C@@H](CCNC(=O)c2cnc3ccccc3c2)NS(=O)(=O)Cc2ccccc2)C1O (some centres undefined)	250 nM	111 nM	537 nM	10.6 nM	–	–	–	–
N=C(N)N1CCC[C@H](NC(=O)CNC(=O)[C@@H](CCNC(=O)c2cnccn2)NS(=O)(=O)Cc2ccccc2)C1O (some centres undefined)	521 nM	166 nM	> 2500 nM	5 nM	–	–	–	–
Cc1cnc(C(=O)NCC[C@@H](NC(=O)OCc2ccccc2)C(=O)NCC(=O)N[C@H]2CCCN(C(=N)N)C2O)cn1 (some centres undefined)	> 2500 nM	40.3 nM	> 2500 nM	232 nM	–	–	–	–
N=C(N)N1CCC[C@H](NC(=O)CNC(=O)[C@@H](CCNC(=O)c2cnnc3ccccc23)NS(=O)(=O)Cc2ccccc2)C1O (some centres undefined)	700 nM	4.21 nM	1770 nM	5.6 nM	–	–	–	–
N=C(N)N1CCC[C@H](NC(=O)CNC(=O)[C@@H](CCNC(=O)c2ccc3ccccc3n2)NS(=O)(=O)Cc2ccccc2)C1O (some centres undefined)	1440 nM	59.2 nM	1270 nM	44.4 nM	–	–	–	–
N=C(N)N1CCC[C@H](NC(=O)CNC(=O)[C@@H](CCNC(=O)c2cccnc2)NS(=O)(=O)Cc2ccccc2)C1O (some centres undefined)	2500 nM	561 nM	> 2500 nM	79.1 nM	–	–	–	–
N=C(N)N1CCC[C@H](NC(=O)CNC(=O)[C@@H](CCNC(=O)c2ccccc2)NS(=O)(=O)Cc2ccccc2)C1O (some centres undefined)	–	–	–	–	Not Active	Not Active	Not Active	Not Active
N=C(N)N1CCC[C@H](NC(=O)CNC(=O)[C@@H](CCNC(=O)c2cnccn2)NC(=O)OCc2ccccc2)C1O (some centres undefined)	2030 nM	30 nM	2500 nM	106 nM	–	–	–	–
N=C(N)N1CCC[C@H](NC(=O)CNC(=O)[C@@H](CCNC(=O)c2cncc(Br)c2)NC(=O)OCc2ccccc2)C1O (some centres undefined)	> 2500 nM	> 31.2 nM	> 2500 nM	313 nM	–	–	–	–
N=C(N)N1CCC[C@H](NC(=O)CNC(=O)[C@@H](CCNC(=O)c2nccc3ccccc23)NC(=O)OCc2ccccc2)C1O (some centres undefined)	> 2500 nM	> 2500 nM	> 2500 nM	313 nM	–	–	–	–
N=C(N)N1CCC[C@H](NC(=O)CNC(=O)[C@@H](CCNC(=O)c2nccc3ccccc23)NS(=O)(=O)Cc2ccccc2)C1O (some centres undefined)	730 nM	97.8 nM	> 2500 nM	4.9 nM	–	–	–	–
N=C(N)N1CCC[C@H](NC(=O)CNC(=O)[C@@H](CCNC(=O)c2cncc(Br)c2)NS(=O)(=O)Cc2ccccc2)C1O (some centres undefined)	1060 nM	160 nM	> 2500 nM	10.6 nM	–	–	–	–
N=C(N)NCCCC(NS(=O)(=O)Cc1ccccc1)C(=O)NCC(=O)N[C@H]1CCCN(C(=N)N)C1O (some centres undefined)	–	75 nM	> 2500 nM	0.7 nM	–	–	–	–
N=C(N)N1CCC[C@H](NC(=O)CNC(=O)[C@@H](CCNC(=O)c2cnc3ccccc3c2)NC(=O)OCc2ccccc2)C1O (some centres undefined)	1140 nM	20.4 nM	> 2500 nM	169 nM	–	–	–	–
N=C(N)N1CCC[C@H](NC(=O)CNC(=O)[C@@H](CCNC(=O)c2nc3ccccc3nc2O)NS(=O)(=O)Cc2ccccc2)C1O (some centres undefined)	–	–	> 2500 nM	> 2500 nM	Not Active	–	–	Not Active
N=C(N)N1CCC[C@H](NC(=O)CNC(=O)[C@@H](CCNC(=O)c2ccc(O)nc2)NS(=O)(=O)Cc2ccccc2)C1O (some centres undefined)	367 nM	26.6 nM	> 2500 nM	6.1 nM	–	–	–	–
